Assay results published in PMC11770318, “Isolation and characterization of a β-galactosidase from Lactobacillus helveticus for industrial processing” (JDS Communications, 2024).

Experiments:
[1] = biological target: T1, β-galactosidase (LacLM) from Lactobacillus helveticus OSU-PECh-4A (Lactobacillus helveticus, UniProt Q7WTB3+Q7WTB4); assay: inhibition of lactose hydrolysis; format: biochemical; conditions: end product; substrate lactose; 50 mM sodium phosphate pH 7.0, 37°C
T1 construct: gene lacL; native, purified from Lb. helveticus OSU-PECh-4A by diafiltration and size-exclusion chromatography; GH2 heterodimer, 110 kDa (74 + 36 kDa subunits); 13 peptides identified by LC-MS; no tag
T1 sequence (Q7WTB4 whole entry): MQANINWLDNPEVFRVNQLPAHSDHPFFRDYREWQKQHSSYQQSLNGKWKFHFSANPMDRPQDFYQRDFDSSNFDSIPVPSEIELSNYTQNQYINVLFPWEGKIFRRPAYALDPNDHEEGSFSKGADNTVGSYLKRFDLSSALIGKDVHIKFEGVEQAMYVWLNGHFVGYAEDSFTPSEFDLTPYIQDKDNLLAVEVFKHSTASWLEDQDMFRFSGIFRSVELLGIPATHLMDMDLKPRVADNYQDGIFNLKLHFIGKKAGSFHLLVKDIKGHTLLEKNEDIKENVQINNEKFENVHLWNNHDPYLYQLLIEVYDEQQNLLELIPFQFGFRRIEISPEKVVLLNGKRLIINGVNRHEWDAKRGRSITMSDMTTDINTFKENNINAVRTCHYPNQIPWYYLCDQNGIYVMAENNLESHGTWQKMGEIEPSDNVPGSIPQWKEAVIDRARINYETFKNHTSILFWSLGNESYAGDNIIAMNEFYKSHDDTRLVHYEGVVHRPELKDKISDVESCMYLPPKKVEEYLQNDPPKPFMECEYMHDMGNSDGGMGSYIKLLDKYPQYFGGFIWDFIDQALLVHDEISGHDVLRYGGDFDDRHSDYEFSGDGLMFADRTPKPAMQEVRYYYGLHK
T1 sequence (Q7WTB3 whole entry): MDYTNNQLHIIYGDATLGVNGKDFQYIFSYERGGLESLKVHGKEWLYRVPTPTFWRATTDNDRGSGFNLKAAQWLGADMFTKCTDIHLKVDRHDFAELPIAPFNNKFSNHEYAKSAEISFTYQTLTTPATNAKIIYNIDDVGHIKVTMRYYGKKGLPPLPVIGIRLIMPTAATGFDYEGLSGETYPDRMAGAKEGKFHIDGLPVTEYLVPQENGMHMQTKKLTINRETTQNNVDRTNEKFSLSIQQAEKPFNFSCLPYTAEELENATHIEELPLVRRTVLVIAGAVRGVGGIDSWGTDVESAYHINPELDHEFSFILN

[2] = biological target: T1, β-galactosidase (LacLM) from Lactobacillus helveticus OSU-PECh-4A; assay: inhibition of oNPG hydrolysis; format: biochemical; conditions: end product; substrate oNPG; 50 mM sodium phosphate pH 7.0, 37°C; allosteric (authors' interpretation)

`OC[C@H]1OC(O)[C@H](O)[C@@H](O)[C@H]1O` (stereo partly drawn) [D-galactose] was tested, and the “% loss of initial activity at 1 mM” value [1] was 30%.

For `OC[C@H]1OC(O)[C@H](O)[C@@H](O)[C@@H]1O` (stereo partly drawn) [D-glucose], the “% decrease of activity below 50 mM” value [2] was 30%.
